According to US5234934A, “Aminopropanol derivatives, process for their preparation and pharmaceutical compositions comprising the same” (priority 1989, dated 1993):

Experiments:
[1] = tested on: aconitine-induced ECG alterations; assay: animal or person; format: in vivo, rat; conditions: Rattus norvegicus; for change in vivo at 4 mg/kg / ED50: iv; for change in vivo at 4 mg/kg / change in vivo at 100 mg/kg: read-out: Effect % (antiarrhythmic); for ED50: read-out: ED50 iv. (antiarrhythmic); for change in vivo at 100 mg/kg: po
Protocol: The test was carried out by using the modified method of Marmo et al. on rats weighing 160 to 200 g. The animals were narcotised by ethyl uretane (1.2 g/kg ip.). Aconitin was administered intravenously in a dose of 75 /ug/kg in the form of a bolus injection. The ECG alterations were monitored in standard II lead by 5 minutes after the administration of aconitine. The observed alterations were classified into classes 0 to 5. The compounds of the invention were administered 2 minutes or 60 minutes before the parenteral or oral administration of aconitine, respectively. […]
class 1: sometimes an extrasystole occurs class 2: each second one is an extrasystole class 3: extrasystoles in groups class 4: each one is an extrasystole class 5: fibrillation, death
(Marmo, E., DiGiacomo, S., Imperatore, A.: Arzeimittel-Forschung 20, 12/1970/)

[2] = acute toxicity test in mice (Litchfield and Wilcoxon); format: in vivo, mouse; conditions: mouse, in vivo, po., 14 days observation
Protocol: The test for acute toxicity was carried out by using 10 white mice (CFLP strain) (both male and female), weighing 18 to 22 g in each dose group. The compounds of the invention were administered orally in a dose of 20 ml/kg.
The animals were kept in a plastic box on wood chips in a room of room temperature. They could consume tap water and standard mouse feed ad libitum. The toxicity data were determined by the method of Litchfield and Wilcoxon (Litchfield, J. T., Wilcoxon, F. W.: J. Pharmacol. Exp. Ther. 96, 99/1949/).

hexobarbital narcosis = assay: narcosis potentiating effect (hexobarbital sleeping time); conditions: for ED50: Mus musculus, po, read-out: ED50 (narcosis potentiation); for TI (therapeutic index): narcosis potentiation, mice, po.
Protocol: The narcosis potentiating effect of the compounds of the invention were examined on white mice, with 6 animals in each group. The mice were administered orally with the compounds of the invention, then both the control and the test groups were intravenously added 40 mg/kg of hexobarbital in order to make the mice sleep (Kaergard et al.).

Row | Structure (SMILES) | LD50 at 336 h [2] | ED50 (hexobarbital narcosis) | TI (therapeutic index) (hexobarbital narcosis) | further results
1 | CC(C)(C)NCC(O)CO/N=C1\CCCC\C1=C/c1ccccc1 (racemic) [Example 2, R,S-2-(E)-Phenylmethylene-1-(E)-[3-(1,1-dimethylethyl-amino)-2-hydroxy-propoxyimino]-cyclohexane] | 600 mg/kg |  |  | change in vivo at 4 mg/kg [1]: -43%
2 | CCCCCCNCC(O)CO/N=C1\CCCC\C1=C/c1ccccc1 (racemic) [Example 3, R,S-2-(E)-Phenylmethylene-1-(E)-(3-hexylamino-2-hydroxy-propoxyimino)-cyclohexane] | > 1000 mg/kg |  |  | 
3 | COc1ccc(CCNCC(O)CO/N=C2\CCCC\C2=C/c2ccccc2)cc1OC (racemic) [Example 7] | > 1000 mg/kg | 70 mg/kg | 14 | 
4 | OC(CO/N=C1\CCCC\C1=C/c1ccccc1)CN1CCCC1 (racemic) [Example 8, R,S-2-(E)-Phenylmethylene-1-(E)-(3-pyrrolidinyl-2-hydroxy-propoxyimino)-cyclohexane] | 800 mg/kg |  |  | 
5 | OC(CO/N=C1\CCCC\C1=C/c1ccccc1)CN1CCCCC1 (racemic) [Example 9, R,S-2-(E)-Phenylmethylene-1-(E)-(3-piperidinyl-2-hydroxypropoxyimino)-cyclohexane] | 700 mg/kg | 30 mg/kg | 23 | 
6 | CC(C)N(CC(O)CO/N=C1\CCCCC\C1=C/c1ccccc1)C(C)C (racemic) [Example 14, R,S-2-(E)-Phenylmethylene-1-(E)-{3-[bis-(1-methylethyl)-amino]-2-hydroxy-propoxyimino}-cycloheptane] | 900 mg/kg | 80 mg/kg | 11 | ED50 [1]: 1.64 mg/kg; change in vivo at 4 mg/kg [1]: -83%
7 | C#CC(C)(C)NCC(O)CO/N=C1\CCCCC\C1=C/c1ccccc1 (racemic) [Example 16, R,S-2-(E)-Phenylmethylene-1-(E)-[3-(1,1-dimethylpropin-2-yl)amino-2-hydroxy-propoxyimino]-cycloheptane] | > 1000 mg/kg |  |  | 
8 | CN1CCN(CC(O)CO/N=C2\CCCCC\C2=C/c2ccccc2)CC1 (racemic) [Example 17, R,S-2-(E)-Phenylmethylene-1-(E)-[3-(4-methyl-1-piperazinyl)-2-hydroxy-propoxyimino]-cycloheptane] | > 1000 mg/kg |  |  | 
9 | CC(C)(C)NCC(O)CO/N=C1\CCC\C1=C/c1ccccc1 (racemic) [Example 22, R,S-2-(E)-Phenylmethylene-1-(E)-[3-(1,1-dimethylethylamino)-2-hydroxy-propoxyimino]-cyclopentane] | 900 mg/kg |  |  | 
10 | OC(CNC1CC1)CO/N=C1\CCCC\C1=C/c1ccc(Cl)cc1 (racemic) [Example 27, R,S-2-(E)-(4-Chlorophenyl-methylene)-1-(E)-(3-cyclopropylamino-2-hydroxy-propoxyimino)-cyclohexane] | ~1000 mg/kg | 35 mg/kg | 29 | 
11 | CC(C)NCC(O)CO/N=C1\CCCC\C1=C/c1ccc(Cl)cc1 (racemic) [Example 28, R,S-2-(E)-(4-Chlorophenyl-methylene)-1-(E)-[3-(1-methylethylamino)-2-hydroxy-propoxyimino]-cyclohexane] | 1500 mg/kg | 75 mg/kg | 20 | 
12 | CC(C)(C)NCC(O)CO/N=C1\CCCC\C1=C/c1ccc(Cl)cc1 (racemic) [Example 31, R,S-2-(E)-(4-Chlorophenyl-methylene)-1-(E)-[3-(1,1-dimethylethylamino)-2'-hydroxy-propoxyimino]-cyclohexane] | ~1000 mg/kg |  |  | 
13 | CCCN(CCC)CC(O)CO/N=C1\CCCC\C1=C/c1ccc(Cl)c(Cl)c1 (racemic) [Example 34, R,S-2-(E)-(3,4-Dichlorophenyl-methylene)-1-(E)-(3-/bis-n-propyl/-amino-2-hydroxy-propoxyimino)-cyclohexane] | > 1000 mg/kg | 145 mg/kg | > 7 | 
14 | COc1ccccc1/C=C1\CCCC\C1=N/OCC(O)CN1CCOCC1 (racemic) [Example 37, R,S-2-(E)-(2-Methoxyphenyl-methylene)-1-(E)-(3-morpholinyl-2-hydroxy-propoxyimino)-cyclohexane] | > 1000 mg/kg | 50 mg/kg | > 20 | 
15 | COc1cccc(/C=C2\CCCC\C2=N/OCC(O)CN2CCN(Cc3ccccc3)CC2)c1 (racemic) [Example 39, R,S-2-(E)-(3-Methoxyphenyl-methylene)-1-(E)-{3-[(4-phenylmethyl)-1-piperazinyl]-2-hydroxy-propoxyimino}-cyclohexane] | > 1000 mg/kg |  |  | 
16 | COc1ccc(/C=C2\CCCCC\C2=N/OCC(O)CNC2CC2)cc1 (racemic) [Example 42, R,S-2-(E)-(4-Methoxyphenyl-methylene)-1-(E)-(3-cyclopropylamino-2-hydroxy-propoxyimino)-cycloheptane] | > 1000 mg/kg | 14.5 mg/kg | > 69 | 
17 | CCCCNCC(O)CO/N=C1\CCCCCC\C1=C/c1ccccc1 (racemic) [Example 49, R,S-2-(E)-Phenylmethylene-1-(E)-(3-butylamino-2-hydroxypropoxyimino)-cyclooctane] | > 1000 mg/kg |  |  | 
18 | COc1ccc(/C=C2\CCCCC\C2=N/OCC(O)CNC(C)C)cc1 (racemic) [Example 50, R,S-2-(E)-(4-Methoxyphenyl-methylene)-1-(E)-/3-(1-methylethylamino)-2-hydroxy-propoxyimino/-cycloheptane] | 1000 mg/kg |  |  | 
19 | OC(CO/N=C1\CCCC\C1=C/c1ccccc1)CN1CCN(c2cccc(Cl)c2)CC1 (racemic) [Example 52, R,S-2-(E)-Phenylmethylene-1-(E)-{3-[4-(3-chlorophenyl)-1-piperazinyl]-2-hydroxy-propoxyimino}-cyclohexane] | > 1000 mg/kg |  |  | 
20 | OC(CO/N=C1\CCCC\C1=C/c1ccccc1)CN1CCN(c2cccc(C(F)(F)F)c2)CC1 (racemic) [Example 53, R,S-2-(E)-Phenylmethylene-1-(E)-3-[4-(3-trifluoromethyl)-phenyl-1-piperazinyl]-2-hydroxy-propoxyimino-cyclohexane] | > 1000 mg/kg |  |  | 
21 | OC(CO/N=C1\CCCC\C1=C/c1ccccc1)CN1CCC(Cc2ccccc2)CC1 (racemic) [Example 54] | 600 mg/kg |  |  | ED50 [1]: 3.47 mg/kg; change in vivo at 4 mg/kg [1]: -56%
22 | O=C(OC(CO/N=C1\CCCCCC\C1=C/c1ccccc1)CN1CCOCC1)c1ccccc1 (racemic) [Example 69, R,S-2-(E)-Phenylmethylene-1-(E)-[3'-(4-morpholinyl)-2'-benzoyloxy-propoxyimino]-cyclooctane] | > 1000 mg/kg |  |  | 
23 | CNC1=Nc2ccc(Cl)cc2C(c2ccccc2)=[N+]([O-])C1 [Chlordiazepoxide, reference compound] |  | 10 mg/kg | 62 | 
24 | COc1ccc([C@@H]2Sc3ccccc3N(CCN(C)C)C(=O)[C@@H]2OC(C)=O)cc1 [Dilthiazem, reference compound] |  |  |  | change in vivo at 4 mg/kg [1]: -27%
25 | CCCC(C)(COC(N)=O)COC(N)=O [Meprobamate, reference compound] |  | 260 mg/kg | 4.2 | 
26 | Cc1cccc(C)c1OCC(C)N (centres unmarked) [Mexiletine, reference compound] |  |  |  | change in vivo at 4 mg/kg [1]: -21%
27 | CC(C)NCC(O)COc1cccc2[nH]ccc12 (centres unmarked) [Pindolol, reference compound] |  |  |  | change in vivo at 100 mg/kg [1]: -52%
28 | CC(C)NCC(O)COc1cccc2ccccc12 (centres unmarked) [Propranolol, reference compound] |  |  |  | ED50 [1]: 5.81 mg/kg; change in vivo at 4 mg/kg [1]: -7%; change in vivo at 100 mg/kg [1]: -50%
